Test results taken from PubChem BioAssay (NCI).
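Protocol summary: plate cells (96-well), add compound at 5 concentrations, incubate 48 h, interpolate endpoints linearly. The concentration for full growth arrest is given as TGI.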

Key:
Experiment in all cases: DTP human tumour cell line panel, 48 h
786-0 renal = tested on: 786-0 renal
A549 NSCLC = tested on: A549 NSCLC
ACHN renal = tested on: ACHN renal
BT-549 breast = tested on: BT-549 breast
CAKI-1 renal = tested on: CAKI-1 renal
CCRF-CEM leukemia = tested on: CCRF-CEM leukemia
COLO 205 colon = tested on: COLO 205 colon
DU-145 prostate = tested on: DU-145 prostate
EKVX NSCLC = tested on: EKVX NSCLC
HCC-2998 colon = tested on: HCC-2998 colon
HCT-116 colon = tested on: HCT-116 colon
HCT-15 colon = tested on: HCT-15 colon
HL-60(TB) leukemia = tested on: HL-60(TB) leukemia
HOP-62 NSCLC = tested on: HOP-62 NSCLC
HOP-92 NSCLC = tested on: HOP-92 NSCLC
HS 578T breast = tested on: HS 578T breast
HT29 colon = tested on: HT29 colon
IGROV1 ovarian = tested on: IGROV1 ovarian
KM12 colon = tested on: KM12 colon
LOX IMVI melanoma = tested on: LOX IMVI melanoma
M14 melanoma = tested on: M14 melanoma
MALME-3M melanoma = tested on: MALME-3M melanoma
MCF7 breast = tested on: MCF7 breast
MDA-MB-231 breast = tested on: MDA-MB-231 breast
MDA-MB-435 = tested on: MDA-MB-435
MDA-N = tested on: MDA-N
MOLT-4 leukemia = tested on: MOLT-4 leukemia
NCI-H23 lung = tested on: NCI-H23 lung
NCI-H460 lung = tested on: NCI-H460 lung
NCI/ADR-RES ovarian = tested on: NCI/ADR-RES ovarian
OVCAR-3 ovarian = tested on: OVCAR-3 ovarian
OVCAR-5 ovarian = tested on: OVCAR-5 ovarian
OVCAR-8 ovarian = tested on: OVCAR-8 ovarian
PC-3 prostate = tested on: PC-3 prostate
RPMI-8226 leukemia = tested on: RPMI-8226 leukemia
SF-268 CNS = tested on: SF-268 CNS
SF-295 CNS = tested on: SF-295 CNS
SF-539 CNS = tested on: SF-539 CNS
SK-MEL-28 melanoma = tested on: SK-MEL-28 melanoma
SK-OV-3 ovarian = tested on: SK-OV-3 ovarian
SN12C renal = tested on: SN12C renal
SNB-19 CNS = tested on: SNB-19 CNS
SNB-75 CNS = tested on: SNB-75 CNS
SR leukemia = tested on: SR leukemia
SW-620 colon = tested on: SW-620 colon
T-47D breast = tested on: T-47D breast
TK-10 renal = tested on: TK-10 renal
U251 CNS = tested on: U251 CNS
UACC-257 melanoma = tested on: UACC-257 melanoma
UO-31 renal = tested on: UO-31 renal
K-562 leukemia = tested on: K-562 leukemia
NCI-H226 lung = tested on: NCI-H226 lung
OVCAR-4 ovarian = tested on: OVCAR-4 ovarian
RXF 393 renal = tested on: RXF 393 renal
SK-MEL-2 melanoma = tested on: SK-MEL-2 melanoma
SK-MEL-5 melanoma = tested on: SK-MEL-5 melanoma
UACC-62 melanoma = tested on: UACC-62 melanoma
NCI-H522 lung = tested on: NCI-H522 lung

Work on `O=C(OCCN1CCCCCC1)C(c1ccsc1)C1CCCCC1` (centres undefined) yielded a TGI (786-0 renal) of 31.8 µM, a TGI (A549 NSCLC) of 44.5 µM and a TGI (ACHN renal) of 33.1 µM. The TGI (BT-549 breast) was 29.6 µM, the TGI (CAKI-1 renal) was 29.4 µM and the TGI (CCRF-CEM leukemia) was 40.2 µM. It also gave a TGI (COLO 205 colon) of 22.7 µM, a TGI (DU-145 prostate) of 33.2 µM and a TGI (EKVX NSCLC) of 35.7 µM. It also gave a TGI (HCC-2998 colon) of 31.5 µM, a TGI (HCT-116 colon) of 29.6 µM and a TGI (HCT-15 colon) of 30.8 µM. For the same molecule, the TGI (HL-60(TB) leukemia) was 70.6 µM, the TGI (HOP-62 NSCLC) was 29.9 µM and the TGI (HOP-92 NSCLC) was 31.2 µM. For the same molecule, the TGI (HS 578T breast) was 37.8 µM, the TGI (HT29 colon) was 31.6 µM and the TGI (IGROV1 ovarian) was 24.2 µM. For the same molecule, the TGI (KM12 colon) was 32.1 µM, the TGI (LOX IMVI melanoma) was 32.2 µM and the TGI (M14 melanoma) was 32.8 µM. The TGI (MALME-3M melanoma) was 28.2 µM, the TGI (MCF7 breast) was 33 µM and the TGI (MDA-MB-231 breast) was 31.8 µM. It also gave a TGI (MDA-MB-435) of 32.3 µM, a TGI (MDA-N) of 28.4 µM and a TGI (MOLT-4 leukemia) of 50.6 µM. The TGI (NCI-H23 lung) was 39 µM, the TGI (NCI-H460 lung) was 33 µM and the TGI (NCI/ADR-RES ovarian) was 31.4 µM. It also gave a TGI (OVCAR-3 ovarian) of 28.8 µM, a TGI (OVCAR-5 ovarian) of 32.5 µM and a TGI (OVCAR-8 ovarian) of 34.5 µM. It also gave a TGI (PC-3 prostate) of 44.9 µM, a TGI (RPMI-8226 leukemia) of 32.1 µM and a TGI (SF-268 CNS) of 36.8 µM. For the same molecule, the TGI (SF-295 CNS) was 32.4 µM, the TGI (SF-539 CNS) was 30.8 µM and the TGI (SK-MEL-28 melanoma) was 36.2 µM. The TGI (SK-OV-3 ovarian) was 31.8 µM, the TGI (SN12C renal) was 32.8 µM and the TGI (SNB-19 CNS) was 40.4 µM. It also gave a TGI (SNB-75 CNS) of 32.2 µM, a TGI (SR leukemia) of 57.2 µM and a TGI (SW-620 colon) of 33.4 µM. The TGI (T-47D breast) was 17.8 µM, the TGI (TK-10 renal) was 33.5 µM and the TGI (U251 CNS) was 32.1 µM. For the same molecule, the TGI (UACC-257 melanoma) was 34.5 µM and the TGI (UO-31 renal) was 26.9 µM.

For `O=C(OCCN=C1c2ccccc2CCc2ccccc21)c1ccccc1`, the TGI (786-0 renal) was greater than 100 µM, the TGI (A549 NSCLC) was greater than 100 µM and the TGI (ACHN renal) was greater than 100 µM. It also gave a TGI (BT-549 breast) greater than 100 µM, a TGI (CAKI-1 renal) greater than 100 µM and a TGI (CCRF-CEM leukemia) greater than 100 µM. It also gave a TGI (COLO 205 colon) greater than 100 µM, a TGI (DU-145 prostate) greater than 100 µM and a TGI (EKVX NSCLC) greater than 100 µM. It also gave a TGI (HCC-2998 colon) greater than 100 µM, a TGI (HCT-116 colon) greater than 100 µM and a TGI (HCT-15 colon) greater than 100 µM. The TGI (HL-60(TB) leukemia) was greater than 100 µM, the TGI (HOP-62 NSCLC) was greater than 100 µM and the TGI (HOP-92 NSCLC) was greater than 100 µM. It also gave a TGI (HS 578T breast) greater than 100 µM, a TGI (HT29 colon) greater than 100 µM and a TGI (IGROV1 ovarian) greater than 100 µM. It also gave a TGI (K-562 leukemia) greater than 100 µM, a TGI (KM12 colon) greater than 100 µM and a TGI (LOX IMVI melanoma) greater than 100 µM. For the same molecule, the TGI (M14 melanoma) was greater than 100 µM, the TGI (MALME-3M melanoma) was greater than 100 µM and the TGI (MCF7 breast) was greater than 100 µM. The TGI (MDA-MB-231 breast) was greater than 100 µM, the TGI (MDA-MB-435) was greater than 100 µM and the TGI (MDA-N) was greater than 100 µM. For the same molecule, the TGI (MOLT-4 leukemia) was 39 µM, the TGI (NCI-H226 lung) was greater than 100 µM and the TGI (NCI-H23 lung) was greater than 100 µM. The TGI (NCI-H460 lung) was greater than 100 µM, the TGI (NCI/ADR-RES ovarian) was greater than 100 µM and the TGI (OVCAR-3 ovarian) was greater than 100 µM. It also gave a TGI (OVCAR-4 ovarian) greater than 100 µM, a TGI (OVCAR-5 ovarian) greater than 100 µM and a TGI (OVCAR-8 ovarian) greater than 100 µM. For the same molecule, the TGI (PC-3 prostate) was greater than 100 µM, the TGI (RPMI-8226 leukemia) was 34.2 µM and the TGI (RXF 393 renal) was greater than 100 µM. For the same molecule, the TGI (SF-268 CNS) was greater than 100 µM, the TGI (SF-295 CNS) was greater than 100 µM and the TGI (SF-539 CNS) was greater than 100 µM. The TGI (SK-MEL-2 melanoma) was greater than 100 µM, the TGI (SK-MEL-28 melanoma) was greater than 100 µM and the TGI (SK-MEL-5 melanoma) was greater than 100 µM. The TGI (SK-OV-3 ovarian) was greater than 100 µM, the TGI (SN12C renal) was greater than 100 µM and the TGI (SNB-19 CNS) was greater than 100 µM. It also gave a TGI (SNB-75 CNS) greater than 100 µM, a TGI (SR leukemia) of 50.2 µM and a TGI (SW-620 colon) greater than 100 µM. The TGI (T-47D breast) was greater than 100 µM, the TGI (TK-10 renal) was greater than 100 µM and the TGI (U251 CNS) was greater than 100 µM. For the same molecule, the TGI (UACC-257 melanoma) was greater than 100 µM, the TGI (UACC-62 melanoma) was greater than 100 µM and the TGI (UO-31 renal) was greater than 100 µM.

Molecule `NC1CSc2ccccc2NC1=O` (centres undefined) has a TGI (786-0 renal) greater than 100 µM, a TGI (A549 NSCLC) greater than 100 µM and a TGI (ACHN renal) greater than 100 µM. For the same molecule, the TGI (BT-549 breast) was greater than 100 µM, the TGI (CAKI-1 renal) was greater than 100 µM and the TGI (CCRF-CEM leukemia) was greater than 100 µM. The TGI (COLO 205 colon) was greater than 100 µM, the TGI (DU-145 prostate) was greater than 100 µM and the TGI (EKVX NSCLC) was greater than 100 µM. For the same molecule, the TGI (HCC-2998 colon) was greater than 100 µM, the TGI (HCT-116 colon) was greater than 100 µM and the TGI (HCT-15 colon) was greater than 100 µM. It also gave a TGI (HL-60(TB) leukemia) greater than 100 µM, a TGI (HOP-62 NSCLC) greater than 100 µM and a TGI (HS 578T breast) greater than 100 µM. The TGI (HT29 colon) was greater than 100 µM, the TGI (IGROV1 ovarian) was greater than 100 µM and the TGI (K-562 leukemia) was greater than 100 µM. It also gave a TGI (KM12 colon) greater than 100 µM, a TGI (LOX IMVI melanoma) greater than 100 µM and a TGI (M14 melanoma) greater than 100 µM. The TGI (MALME-3M melanoma) was greater than 100 µM, the TGI (MCF7 breast) was greater than 100 µM and the TGI (MDA-MB-231 breast) was greater than 100 µM. The TGI (MDA-MB-435) was greater than 100 µM, the TGI (MDA-N) was greater than 100 µM and the TGI (MOLT-4 leukemia) was greater than 100 µM. It also gave a TGI (NCI-H226 lung) greater than 100 µM, a TGI (NCI-H23 lung) greater than 100 µM and a TGI (NCI-H460 lung) greater than 100 µM. It also gave a TGI (NCI-H522 lung) greater than 100 µM, a TGI (NCI/ADR-RES ovarian) greater than 100 µM and a TGI (OVCAR-3 ovarian) greater than 100 µM. It also gave a TGI (OVCAR-4 ovarian) greater than 100 µM, a TGI (OVCAR-5 ovarian) greater than 100 µM and a TGI (OVCAR-8 ovarian) greater than 100 µM. The TGI (PC-3 prostate) was greater than 100 µM, the TGI (RPMI-8226 leukemia) was greater than 100 µM and the TGI (RXF 393 renal) was greater than 100 µM. For the same molecule, the TGI (SF-268 CNS) was greater than 100 µM, the TGI (SF-295 CNS) was greater than 100 µM and the TGI (SF-539 CNS) was greater than 100 µM. The TGI (SK-MEL-2 melanoma) was greater than 100 µM, the TGI (SK-MEL-28 melanoma) was greater than 100 µM and the TGI (SK-MEL-5 melanoma) was greater than 100 µM. It also gave a TGI (SK-OV-3 ovarian) greater than 100 µM, a TGI (SN12C renal) greater than 100 µM and a TGI (SNB-19 CNS) greater than 100 µM. The TGI (SNB-75 CNS) was greater than 100 µM, the TGI (SR leukemia) was greater than 100 µM and the TGI (SW-620 colon) was greater than 100 µM. The TGI (T-47D breast) was greater than 100 µM, the TGI (TK-10 renal) was greater than 100 µM and the TGI (U251 CNS) was greater than 100 µM. For the same molecule, the TGI (UACC-257 melanoma) was greater than 100 µM, the TGI (UACC-62 melanoma) was greater than 100 µM and the TGI (UO-31 renal) was greater than 100 µM.
